Residue numbers refer to the chain shown, from its start.
What was measured:
[1] = biological target: T1, TrxR/Trx system (Homo sapiens, UniProt P10599); assay: TrxR/Trx NADPH oxidation assay; assay type: biochemical
T1 construct: purchased Sigma (Trx); American Diagnostica (bovine TrxR)
T1 sequence (P10599 1-105): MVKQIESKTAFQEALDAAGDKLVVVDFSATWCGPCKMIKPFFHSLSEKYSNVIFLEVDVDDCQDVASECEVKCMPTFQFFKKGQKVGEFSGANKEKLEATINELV
Source text: (Note: error bars are small and may be obscured by the symbols). […] (Note: error bars were omitted but assays were run in quadruplicate with typical errors of 5-8% between individual replicates). […] Panel D: Initial velocity reaction rates corresponding to progress curves shown in Panel C. With time, Trx-mesna and Trx-GSH are converted back to apo-Trx by Trx reductase (see also, FIG. 69, Panel E).

[2] = biological target: γ-Glutamyltranspeptidase (Homo sapiens, UniProt P19440); assay: γ-Glutamyltranspeptidase activity (summary Table 27); assay type: biochemical
Chain of γ-Glutamyltranspeptidase (P19440 whole entry): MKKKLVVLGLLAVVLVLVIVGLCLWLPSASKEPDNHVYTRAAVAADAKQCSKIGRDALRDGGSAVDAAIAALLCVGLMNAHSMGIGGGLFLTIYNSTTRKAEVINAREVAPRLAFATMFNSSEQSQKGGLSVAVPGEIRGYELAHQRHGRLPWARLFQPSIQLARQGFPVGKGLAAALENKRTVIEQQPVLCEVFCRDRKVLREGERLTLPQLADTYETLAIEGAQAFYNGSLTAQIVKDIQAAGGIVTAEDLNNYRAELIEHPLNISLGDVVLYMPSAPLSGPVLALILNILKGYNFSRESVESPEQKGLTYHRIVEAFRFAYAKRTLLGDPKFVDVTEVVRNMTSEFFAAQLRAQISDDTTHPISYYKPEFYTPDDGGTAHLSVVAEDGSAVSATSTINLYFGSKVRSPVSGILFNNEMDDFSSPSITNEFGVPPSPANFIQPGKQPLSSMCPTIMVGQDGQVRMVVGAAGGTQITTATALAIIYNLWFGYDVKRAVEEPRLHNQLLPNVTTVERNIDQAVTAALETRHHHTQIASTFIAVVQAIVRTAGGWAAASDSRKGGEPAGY

[3] = system: Stage IV primary adenocarcinoma of the lung; assay: Tavocept Phase III Clinical Trial (interim analysis); assay type: in vivo, human
Source text: In the Tavocept Phase III Clinical Trial pre-specification was made through stratification factors including sex (i.e., male versus female) and taxane treatment (i.e., paclitaxel versus docetaxel). Eligible patients had not received prior drug treatment for their cancer, and inclusion in the trial was also allowed for patients who had relapsed following surgery for earlier stage disease as well as patients with central nervous system metastasis. A total of 540 patients were enrolled on the trial.
The primary endpoint of this study was overall survival (OS); defined as the time period from the date of patient randomization to the date of death due to any cause.
Patient eligibility was determined by compliance with protocol-specified inclusion and exclusion criteria.
All patients received standard combination chemotherapy (taxane agent plus cisplatin) and either Tavocept or placebo.
Treatment was administered every 3 weeks for a maximum of 6 cycles (one treatment cycle=21 days).
The primary endpoint for analysis was the duration of overall survival, defined as the time from the date of randomization to the date of death due to any cause. The number of mortality events used for the final analysis depended upon the number of patients enrolled into the study (provided the sample size was adjusted at the interim analysis). For the primary analysis, the expected number of total mortality events was approximately 416 mortality events for a sample size of 575 patients.
The one-sided log-rank test was performed in order to allow the application of the adaptive methodology. Details of this 2-stage adaptive design are described below. Kaplan-Meier survival curves (including identification of censored observations) was presented by treatment group, as well as median survival times and their 95% confidence intervals.
The following specific endpoints were evaluated with pre-specified analyses in order to evaluate for potential clinically and statistically significant differences between Tavocept- and placebo-treated patients.
The incidence of cisplatin renal toxicity and anemia, and the impact of emesis on daily life were analyzed using the Cochran-Mantel-Haenszel (CMH) tests for proportions. The CMH test was applied in the comparison between Tavocept and placebo where adjustment for prognostic factors is clinically important (e.g., adjusting for baseline characteristics). To control for Type I error due to multiple comparisons of safety data, a nominal, 2-sided p-value of less than 0.0125 was used for each comparison of renal toxicity, anemia, and emesis.

[4] = biological target: T2, Trx (E13K, D16K, E95K, E103K) (Homo sapiens, UniProt P10599, D16K/E103K/E13K/E95K); assay: X-ray crystallography of Tavocept-derived mesna adduct on Trx; assay type: binding; conditions: Tavocept 40 mM
T2 construct: 6xHis with TEV site (N, cleaved yes); made in house; host or cells: E. coli BL21(DE3)
T2 sequence (P10599 1-105 E13K/D16K/E95K/E103K): T1 sequence (P10599 1-105) with E13K, D16K, E95K, E103K
Experimental: Adduct was prepared as described above with some modifications designed to increase the likelihood of success in crystallization of the protein. […] This reaction was incubated for 1 hour at 30° C. followed by overnight incubation at 4° C. […] Aliquots of this solution were analyzed by ESI LC-MS to confirm the presence of adduct(s) prior to initiation of crystallization experiments.
These initial broad screens produced crystals under a wide range of conditions (data not shown) and the screens used included: (i) PEGION, CRYSTALS HT, and PEGRX (Hampton Research) and (ii) JCSG and BASIC (JENA Biosciences). Multiple rounds of optimization were completed and included fine screens, varying the protein concentration and varying the protein to reservoir ratios to obtain diffraction quality crystals. In the Trx pH 9.0/8.5 structure (adduct formed at pH 9.0, crystals grown at pH 8.5), the best crystals were obtained in 20% ethanol, 0.1 M Tris (at 60 mg/mL Trx protein) and diffracted to 2.5 Å (C2 space group). In Trx pH 9.0/7.0 (adduct formed at pH 9.0, crystals grown at pH 7.0), the best crystals were obtained in 20% PEG3350, 0.2 M KCl (60 mg/mL Trx protein) and diffracted to 2.8 Å (C2 space group). In Trx pH 7.0/7.0 (adduct formed at pH 7.0, crystals grown at pH 7.0), the best crystals were obtained in 28% PEG3350, 0.2M KCl (160 mg/mL Trx protein) and diffracted to 1.85 Å resolution (P21 space group).
The solution obtained was consistent with four molecules in the crystal asymmetric unit. […] Molecules C and D were substantially rebuilt and the Tavocept-derived mesna adduct added after protein rebuilding was complete. The structure solution was supported by contiguous electron density for the entire chain trace of each molecule, landmark side chain density features matching the amino acid sequence including cysteines, absence of phi-psi violations, and final R/Rfree values in the normal range. […] For the Trx pH 9.0/8.5 structure, residual density observed near Cys69 of molecule A was modeled as a Tavocept-derived mesna adduct in a dual conformation. […]

Q: With `O=S(=O)([O-])CCSSCCS(=O)(=O)[O-].[Na+].[Na+]` [Tavocept, disodium 2,2′-dithio-bis-ethane sulfonate] as the molecule, how does the “mode of action on Trx” value [1] read?
A: Its value is “alternative substrate inhibitor”.

Q: And the “NADPH oxidation by TrxR and Trx” value ([1]; increasing concentrations of test substance)?
A: The value was “increases”.

Q: What about the “Cellular consequence of BNP7787-modification and/or modulation: γ-glutamyltranspeptidase” value [2] of the same molecule?
A: The value was “can inhibit γ-glutamyltranspeptidase and aminopeptidase N enzyme”.

Q: And the “Median survival advantage versus placebo” value ([3]; Male & Female Non-Smokers receiving paclitaxel and cisplatin)?
A: The value was 12 months.

Q: And the “Median survival advantage versus placebo” value ([3]; PS 1 ECOG Performance Status males and females receiving paclitaxel and cisplatin)?
A: The value was 4.0 months.

Q: What about the “Overall median survival advantage versus placebo” value ([3]; all subjects, paclitaxel or docetaxel plus cisplatin) of the same molecule?
A: Its value is “greater than 2 month”.

Q: What about the “Protection against chemotherapy-induced kidney toxicity” value ([3]; compared to placebo) of the same molecule?
A: The value was “improvement in the relative creatine decrease from baseline in favor of Tavocept”.

Q: And the Anemia ([3]; compared to placebo arm)?
A: Its Anemia is “reduced anemia”.

Q: What about the “Kaplan Meier overall survival curve slope” value ([3]; during administration of up to 6 cycles, relative to Placebo arm) of the same molecule?
A: Its value is “flattening of the slope of the survival curve for the Tavocept arm”.

Q: What about the “Median survival advantage versus placebo” value ([3]; female subjects greater than or equal to 65 years of age receiving paclitaxel and cisplatin) of the same molecule?
A: The value was 2.1 months.

Q: What about the “Survival advantage” value ([3]; female subjects with CNS Metastases present, paclitaxel plus cisplatin) of the same molecule?
A: Its value is “Survival advantage in favor of Tavocept”.

Q: What about the “Median survival advantage versus placebo” value ([3]; male and female subjects greater than or equal to 65 years of age receiving paclitaxel and cisplatin) of the same molecule?
A: Its value is 3.5 months.

Q: What about the “Median period of additional survival after starting new chemotherapy, longer than placebo-treated patients” value ([3]; patients previously receiving Tavocept, paclitaxel and cisplatin) of the same molecule?
A: Its value is 3.4 months.

Q: What about the “Median survival advantage versus placebo” value ([3]; subjects greater than or equal to 65 years of age) of the same molecule?
A: Its value is 3 months.

Q: And the “Mesna adduct site on Trx by X-ray” value ([4]; Trx pH 7.0/7.0 structure)?
A: The value was “clearly visible on Cys69 in both molecules A and B”.

Q: What about the “Mesna adduct site on Trx by X-ray” value ([4]; Trx pH 9.0/7.0 structure) of the same molecule?
A: Its value is “clearly visible on both Cys69 and Cys62 in both molecules A and B”.

Q: What about the “Mesna adduct site on Trx by X-ray” value ([4]; Trx pH 9.0/8.5 structure) of the same molecule?
A: The value was “clearly visible on Cys69 in both molecules A and B”.

Source: patent US20170007561A1, “CONTEMPORANEOUS, HETEROGENEOUSLY-ORIENTED, MULTI-TARGETED THERAPEUTIC MODIFICATION AND/OR MODULATION OF DISEASE BY ADMINISTRATION OF SULFUR-CONTAINING, AMINO ACID-SPECIFIC SMALL MOLECULES” (BioNumerik Pharmaceuticals, Inc., priority 2014, published 2017)
